Data from ChEMBL document CHEMBL5338786, “In Silico-Guided Rational Drug Design and Synthesis of Novel 4-(Thiophen-2-yl)butanamides as Potent and Selective TRPV1 Agonists” (J Med Chem, 2023).
Active and inactive are the calls of the source.

Legend:
[1] = molecular target: T1, Transient receptor potential cation channel subfamily V member 1 (Homo sapiens, UniProt Q8NER1); assay: Agonist activity at human recombinant TRPV1 expressed in HEK293 cells assessed as increase in intracellular calcium level by Fluo4-AM based assay; format: cell-based
T1 sequence (Q8NER1 whole entry): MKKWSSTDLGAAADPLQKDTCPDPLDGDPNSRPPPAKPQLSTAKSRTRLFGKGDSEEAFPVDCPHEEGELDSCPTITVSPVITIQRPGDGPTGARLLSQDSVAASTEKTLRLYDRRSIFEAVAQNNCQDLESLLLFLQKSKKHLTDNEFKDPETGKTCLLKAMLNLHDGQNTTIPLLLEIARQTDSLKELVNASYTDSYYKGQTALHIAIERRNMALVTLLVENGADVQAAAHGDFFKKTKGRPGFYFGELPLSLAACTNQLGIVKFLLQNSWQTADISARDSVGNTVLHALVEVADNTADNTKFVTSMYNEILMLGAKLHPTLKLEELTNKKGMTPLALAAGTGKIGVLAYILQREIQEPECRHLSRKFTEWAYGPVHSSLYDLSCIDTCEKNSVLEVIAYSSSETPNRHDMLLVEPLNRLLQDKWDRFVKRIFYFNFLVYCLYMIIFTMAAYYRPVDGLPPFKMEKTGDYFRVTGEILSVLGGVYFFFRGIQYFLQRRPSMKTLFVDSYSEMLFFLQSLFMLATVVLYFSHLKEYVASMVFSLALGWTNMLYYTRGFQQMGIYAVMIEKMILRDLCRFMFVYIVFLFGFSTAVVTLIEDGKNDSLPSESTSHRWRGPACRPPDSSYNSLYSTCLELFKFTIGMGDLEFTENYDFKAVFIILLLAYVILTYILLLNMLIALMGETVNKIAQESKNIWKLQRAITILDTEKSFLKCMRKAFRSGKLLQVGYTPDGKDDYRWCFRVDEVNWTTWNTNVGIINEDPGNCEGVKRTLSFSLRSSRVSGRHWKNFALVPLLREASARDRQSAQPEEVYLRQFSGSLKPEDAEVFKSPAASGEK

[2] = molecular target: Transient receptor potential cation channel subfamily A member 1 (Rattus norvegicus) (UniProt Q6RI86); assay: (§1) Agonist activity at rat recombinant TRPA1 expressed in HEK293 cells assessed as increase in intracellular calcium accumulation by Fluo4-AM based assay; format: cell-based
Transient receptor potential cation channel subfamily A member 1 (Rattus norvegicus), sequence (Q6RI86 whole entry): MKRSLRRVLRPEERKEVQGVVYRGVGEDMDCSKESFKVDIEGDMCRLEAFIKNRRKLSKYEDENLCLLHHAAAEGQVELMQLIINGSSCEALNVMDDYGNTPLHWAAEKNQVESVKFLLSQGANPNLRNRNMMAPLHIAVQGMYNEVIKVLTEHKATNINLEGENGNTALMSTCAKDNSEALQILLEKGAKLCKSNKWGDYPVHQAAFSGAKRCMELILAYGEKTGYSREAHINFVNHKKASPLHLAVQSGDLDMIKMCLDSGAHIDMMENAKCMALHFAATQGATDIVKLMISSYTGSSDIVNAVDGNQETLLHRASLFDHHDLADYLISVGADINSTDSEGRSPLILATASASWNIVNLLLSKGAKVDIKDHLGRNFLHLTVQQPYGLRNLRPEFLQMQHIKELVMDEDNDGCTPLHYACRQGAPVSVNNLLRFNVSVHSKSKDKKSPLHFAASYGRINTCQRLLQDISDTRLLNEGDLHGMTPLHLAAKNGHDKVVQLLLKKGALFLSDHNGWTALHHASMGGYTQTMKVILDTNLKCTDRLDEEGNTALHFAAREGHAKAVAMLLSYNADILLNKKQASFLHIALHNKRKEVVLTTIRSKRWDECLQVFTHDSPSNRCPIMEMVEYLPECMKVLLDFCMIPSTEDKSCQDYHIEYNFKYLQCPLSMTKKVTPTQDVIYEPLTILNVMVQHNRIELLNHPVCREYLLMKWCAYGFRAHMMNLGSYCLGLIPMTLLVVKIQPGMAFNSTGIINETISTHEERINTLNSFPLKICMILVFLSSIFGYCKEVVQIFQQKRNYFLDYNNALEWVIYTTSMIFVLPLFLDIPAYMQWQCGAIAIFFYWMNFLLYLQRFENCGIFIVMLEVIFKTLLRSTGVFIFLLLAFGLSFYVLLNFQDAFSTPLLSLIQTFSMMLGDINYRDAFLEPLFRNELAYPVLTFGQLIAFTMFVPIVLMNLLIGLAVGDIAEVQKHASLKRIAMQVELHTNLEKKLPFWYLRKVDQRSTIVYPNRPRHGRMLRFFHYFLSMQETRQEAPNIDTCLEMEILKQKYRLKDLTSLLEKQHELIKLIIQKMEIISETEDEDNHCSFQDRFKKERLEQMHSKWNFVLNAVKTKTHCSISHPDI

[3] = molecular target: Transient receptor potential cation channel subfamily A member 1 (Rattus norvegicus) (UniProt Q6RI86); assay: Agonist activity at rat recombinant TRPA1 expressed in HEK293 cells assessed as increase in intracellular calcium accumulation by measuring efficacy by Fluo4-AM based assay relative to allyl isothiocyanate; format: cell-based
[4] = molecular target: T2, Transient receptor potential cation channel subfamily A member 1 (Rattus norvegicus, UniProt Q6RI86); assay: Antagonist activity at rat recombinant TRPA1 expressed in HEK293 cells assessed as desensitization by measuring inhibition of allyl isothiocyanate induced intracellular calcium accumulation preincubated for 5 mins followed by allyl isothiocyanate stimulation by Fluo4-AM based assay; format: cell-based
T2 sequence (Q6RI86 whole entry): as above

[5] = molecular target: T1, Transient receptor potential cation channel subfamily V member 1; assay: Antagonist activity at human recombinant TRPV1 expressed in HEK293 cells assessed as desensitization by measuring inhibition of capsaicin-induced intracellular calcium accumulation preincubated for 5 mins followed by capsaicin stimulation by Fluo4-AM based assay; format: cell-based
[6] = molecular target: Transient receptor potential cation channel subfamily V member 4 (Rattus norvegicus, UniProt Q9ERZ8); assay: Antagonist activity at rat recombinant TRPV4 expressed in HEK293 cells assessed as desensitization by measuring inhibition of GSK1016790A induced intracellular calcium accumulation preincubated for 5 mins by Fluo4-AM based assay; format: cell-based
Transient receptor potential cation channel subfamily V member 4, sequence (Q9ERZ8 whole entry): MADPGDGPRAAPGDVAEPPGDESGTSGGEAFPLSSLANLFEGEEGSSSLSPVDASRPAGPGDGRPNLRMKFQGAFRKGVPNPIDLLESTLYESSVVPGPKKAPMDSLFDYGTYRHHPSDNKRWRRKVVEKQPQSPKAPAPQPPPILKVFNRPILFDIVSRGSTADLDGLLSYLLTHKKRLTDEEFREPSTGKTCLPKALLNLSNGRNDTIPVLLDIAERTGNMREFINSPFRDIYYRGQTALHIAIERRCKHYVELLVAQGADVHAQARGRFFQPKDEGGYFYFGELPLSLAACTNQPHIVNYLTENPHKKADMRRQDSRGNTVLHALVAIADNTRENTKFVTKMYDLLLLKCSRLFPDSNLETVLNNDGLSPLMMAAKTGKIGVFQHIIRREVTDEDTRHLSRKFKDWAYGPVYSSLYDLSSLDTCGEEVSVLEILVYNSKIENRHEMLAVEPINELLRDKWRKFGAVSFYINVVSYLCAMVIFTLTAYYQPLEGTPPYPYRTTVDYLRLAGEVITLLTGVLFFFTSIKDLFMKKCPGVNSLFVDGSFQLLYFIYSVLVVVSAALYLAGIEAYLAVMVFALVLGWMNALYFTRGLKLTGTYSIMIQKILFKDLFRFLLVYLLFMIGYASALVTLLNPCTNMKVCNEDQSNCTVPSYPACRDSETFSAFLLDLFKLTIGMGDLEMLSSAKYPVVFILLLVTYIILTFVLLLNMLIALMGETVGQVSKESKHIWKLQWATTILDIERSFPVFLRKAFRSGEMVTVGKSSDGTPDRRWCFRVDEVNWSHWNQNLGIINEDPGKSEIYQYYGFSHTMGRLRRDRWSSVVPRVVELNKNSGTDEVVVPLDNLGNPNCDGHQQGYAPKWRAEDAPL

[7] = molecular target: Transient receptor potential cation channel subfamily M member 8 (Rattus norvegicus, UniProt Q8R455); assay: Antagonist activity at rat recombinant TRPM8 expressed in HEK293 cells assessed as desensitization by measuring inhibition of icilin induced intracellular calcium accumulation preincubated for 5 mins by Fluo4-AM based assay; format: cell-based
Transient receptor potential cation channel subfamily M member 8, sequence (Q8R455 whole entry): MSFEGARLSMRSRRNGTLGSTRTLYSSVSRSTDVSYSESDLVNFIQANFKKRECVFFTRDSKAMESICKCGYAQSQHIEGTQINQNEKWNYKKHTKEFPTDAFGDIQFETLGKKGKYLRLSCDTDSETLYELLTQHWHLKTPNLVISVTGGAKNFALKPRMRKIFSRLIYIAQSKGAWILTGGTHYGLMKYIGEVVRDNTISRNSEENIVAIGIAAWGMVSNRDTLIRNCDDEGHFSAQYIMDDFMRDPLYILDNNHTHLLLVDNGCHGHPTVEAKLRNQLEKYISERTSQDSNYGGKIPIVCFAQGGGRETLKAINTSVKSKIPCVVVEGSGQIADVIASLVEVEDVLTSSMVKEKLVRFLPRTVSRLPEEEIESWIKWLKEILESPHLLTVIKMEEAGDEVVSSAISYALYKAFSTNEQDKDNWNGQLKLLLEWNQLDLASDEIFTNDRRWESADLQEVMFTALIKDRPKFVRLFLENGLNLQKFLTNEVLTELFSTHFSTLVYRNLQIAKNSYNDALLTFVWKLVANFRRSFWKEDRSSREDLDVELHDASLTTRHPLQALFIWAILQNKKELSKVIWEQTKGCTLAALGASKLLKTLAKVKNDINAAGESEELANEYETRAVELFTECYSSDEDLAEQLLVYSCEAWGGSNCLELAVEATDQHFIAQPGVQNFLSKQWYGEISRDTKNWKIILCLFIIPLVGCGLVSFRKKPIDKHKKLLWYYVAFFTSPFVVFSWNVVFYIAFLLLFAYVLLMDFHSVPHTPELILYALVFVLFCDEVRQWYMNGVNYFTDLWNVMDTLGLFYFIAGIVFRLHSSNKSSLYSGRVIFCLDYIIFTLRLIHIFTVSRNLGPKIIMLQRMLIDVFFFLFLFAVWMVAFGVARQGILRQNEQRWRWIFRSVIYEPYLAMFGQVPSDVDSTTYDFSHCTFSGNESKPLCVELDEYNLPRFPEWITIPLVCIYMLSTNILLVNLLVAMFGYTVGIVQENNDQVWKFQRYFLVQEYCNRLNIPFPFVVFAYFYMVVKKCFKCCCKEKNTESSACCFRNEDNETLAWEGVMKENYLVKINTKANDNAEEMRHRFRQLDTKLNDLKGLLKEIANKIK

[8] = molecular target: T2, Transient receptor potential cation channel subfamily A member 1; assay: as §1; format: cell-based
[9] = molecular target: Transient receptor potential cation channel subfamily V member 4 (Rattus norvegicus) (UniProt Q9ERZ8); assay: Agonist activity at rat recombinant TRPV4 expressed in HEK293 cells assessed as increase in intracellular calcium accumulation by measuring efficacy by Fluo4-AM based assay relative to ionomycin; format: cell-based; settings: filed as agonist
Transient receptor potential cation channel subfamily V member 4 (Rattus norvegicus), sequence (Q9ERZ8 whole entry): as the sequence (Q9ERZ8 whole entry) above

HaCaT = assay: Cytotoxicity against human HaCaT cells expressing TRPV1 receptors assessed as reduction in cell viability at 0.1 to 10 uM measured after 48 hrs by Alamar Blue assay; format: toxicity, cell-based; settings: dose 0.1-10 µM
Mus musculus [10] = assay: Antinociceptive activity against formalin-induced nociception in C57BL/6J mouse assessed as total time of nociceptive response at 0.0015 ug per paw, sc pretreated for 10 min followed by formalin challenge and measured after 20 to 60 mins (reference value: 2.18 +/- 0.183 min); format: functional; settings: dose 0.0015 µg, time 30-70 min
Mus musculus [11] = assay: Antinociceptive activity against formalin-induced nociception in C57BL/6J mouse assessed as total time of nociceptive response at 0.0075 ug per paw, sc pretreated for 10 min followed by formalin challenge and measured after 20 to 60 mins (reference value: 2.18 +/- 0.183 min); format: functional; settings: dose 0.0075 µg, time 30-70 min
[12] = Toxicity in C57BL/6J mouse assessed as alteration in nociceptive threshold at 0.0075 to 0.15 ug per paw, sc measured after 10 mins; format: organism-based; settings: in vivo, dose 0.0075-0.15 µg
HUVEC = assay: Cytotoxicity against HUVEC cells expressing TRPV1 receptors assessed as reduction in cell viability at 0.1 to 10 uM measured after 48 hrs by Alamar Blue assay; format: toxicity, cell-based; settings: human, dose 0.1-10 µM
Mus musculus [13] = assay: Antinociceptive activity against formalin-induced nociception in C57BL/6J mouse assessed as total time of nociceptive response at 0.15 ug per paw, sc pretreated for 10 min followed by formalin challenge and measured after 20 to 60 mins (reference value: 2.18 +/- 0.183 min); format: functional; settings: dose 0.15 µg, time 30-70 min

## O=C(CCCc1ccc(-c2cccnc2)s1)NCc1ccccc1
[1]
  EC50: > 10 µM
[2]
  Activity: inactive
[3]
  Efficacy: < 10%
[4]
  IC50: > 100 µM
[5]
  IC50: > 100 µM

## O=C(CCCc1ccc(I)s1)NCc1ccccc1
[4]
  IC50: > 100 µM

## COc1cc(CNC(=O)CCCc2ccc(-c3ccccc3)s2)ccc1O
[6]
  IC50: 27.6 µM
[7]
  IC50: 13.8 µM
[8]
  EC50: 18.7 µM
[4]
  IC50: 33.7 µM

## O=C(CCCc1ccc(-c2cccnc2)s1)NCc1ccc(Cl)c(Cl)c1
[8]
  EC50: 10.4 µM
[4]
  IC50: > 50 µM

## O=C(CCCc1ccc(I)s1)Nc1ccc(O)cc1
[8]
  EC50: 30.3 µM
[4]
  IC50: 44.1 µM

## O=C(CCCc1ccccc1)NCc1ccc(O)cc1
[4]
  IC50: > 100 µM

## O=C(CCCc1ccc(-c2cccnc2)s1)Nc1ccc(O)cc1
[4]
  IC50: > 100 µM

## CC(C)C[C@H](NC(=O)c1cc2ccccc2s1)C(=O)N1CCN(C(=O)[C@H](CO)NS(=O)(=O)c2ccc(Cl)cc2Cl)CC1
[9]
  Efficacy: 88.5%

## COc1ccc(CNC(=O)CCCc2ccc(I)s2)cc1
[4]
  IC50: > 100 µM

## O=C(CCCc1ccccc1)NCCc1ccc(O)c(O)c1
[1]
  EC50: 2.63 µM
[2]
  Activity: inactive
[3]
  Efficacy: < 10%
[4]
  IC50: > 10 µM
[5]
  IC50: 5.84 µM

## COc1cc(CNC(=O)CCCc2ccc(-c3cccnc3)s2)ccc1O
HaCaT
  Activity: Non-Toxic
[6]
  IC50: > 100 µM
[7]
  IC50: > 100 µM
[4]
  IC50: > 100 µM
Mus musculus [10]
  Time: 0.758 min
Mus musculus [11]
  Time: 1.95 min
[12]
  Activity: Non-Toxic
HUVEC
  Activity: Non-Toxic
Mus musculus [13]
  Time: 0.618 min

## COc1ccc(CNC(=O)CCCc2ccc(-c3cccnc3)s2)cc1
[1]
  EC50: > 50 µM
[8]
  EC50: > 50 µM
[3]
  Efficacy: 21%
[4]
  IC50: > 50 µM
[5]
  IC50: > 50 µM

## O=C(CCCc1ccccc1)Nc1ccc(O)cc1
[4]
  IC50: > 10 µM

## O=C(CCCc1ccc(-c2ccccc2)s1)Nc1ccc(O)cc1
[4]
  IC50: > 50 µM

## O=C(CCCc1ccc(I)s1)NCCc1ccc(O)c(O)c1
[1]
  EC50: 1.15 µM
[2]
  Activity: inactive
[3]
  Efficacy: < 10%
[4]
  IC50: > 100 µM
[5]
  IC50: 0.46 µM

## O=C(CCCc1ccc(I)s1)NCc1ccc(O)cc1
[4]
  IC50: > 100 µM

## O=C(CCCc1ccc(-c2cccnc2)s1)NCc1ccc(O)cc1
[8]
  EC50: 27.1 µM
[4]
  IC50: > 50 µM

## O=C(CCCc1ccc(-c2ccccc2)s1)NCc1ccc(Cl)c(Cl)c1
[8]
  EC50: 12 µM
[4]
  IC50: > 50 µM

## O=C(CCCc1ccc(-c2ccccc2)s1)NCc1ccccc1
[4]
  IC50: > 100 µM

## O=C(CCCc1ccc(-c2ccccc2)s1)NCc1ccc(O)cc1
[4]
  IC50: > 50 µM

## O=C(CCCc1ccc(-c2cccnc2)s1)NCCc1ccc(O)c(O)c1
[1]
  EC50: > 10 µM
[2]
  Activity: inactive
[3]
  Efficacy: < 10%
[4]
  IC50: > 100 µM
[5]
  IC50: > 10 µM

## COc1ccc(CNC(=O)CCCc2ccccc2)cc1
[4]
  IC50: > 100 µM

## O=C(CCCc1cccs1)NCc1ccccc1
[4]
  IC50: > 100 µM

## COc1cc(CNC(=O)CCCc2ccccc2)ccc1O
[8]
  EC50: 27.2 µM
[4]
  IC50: 44.5 µM

## COc1cc(CNC(=O)CCCc2ccc(I)s2)ccc1O
HaCaT
  Activity: Non-Toxic
[6]
  IC50: > 50 µM
[7]
  IC50: 16.8 µM
[4]
  IC50: > 50 µM
[12]
  Activity: Non-Toxic
HUVEC
  Activity: Non-Toxic

## O=C(CCCc1ccccc1)NCc1ccc(Cl)c(Cl)c1
[8]
  EC50: 10.7 µM
[4]
  IC50: 11.9 µM

## O=C(CCCc1ccccc1)NCc1ccccc1
[1]
  EC50: > 50 µM
[2]
  Activity: inactive
[3]
  Efficacy: < 10%
[4]
  IC50: > 100 µM
[5]
  IC50: > 100 µM

## O=C(CCCc1ccc(I)s1)NCc1ccc(Cl)c(Cl)c1
[8]
  EC50: > 50 µM
[4]
  IC50: 19.2 µM
